Test results taken from patent US10759793B2, “2-(pyrazolopyridin-3-yl)pyrimidine derivatives as JAK inhibitors” (ALMIRALL, S.A., priority 2015, dated 2020).

Tests used:
Type in all cases: biochemical
JAK3 = JAK3 (Homo sapiens (Human), UniProt P52333); test: In vitro JAK kinase assay (TR-FRET), JAK3; settings: catalytic domain aa 795-1124, GST-fusion; ATP 0.6 μM; peptide 140 nM; 30 minutes at room temperature
Procedure: (§1) Compounds were screened for their ability to inhibit JAK1, JAK2 and JAK3 using the assays as indicated below. […] The enzymatic activity was assayed using as substrate a biotinylated peptide, poly (GT)-Biotin (CisBio). […] The degree of phosphorylation was detected by TR-FRET (time-resolved fluorescence energy transfer). […] The enzymatic reactions took place for 30 minutes at room temperature. […] Incubate for 3 h and read on Victor 2V spectrofluorometer (Perkin Elmer) set to read fluorescence resonance energy transfer.

JAK2 = JAK2 (Homo sapiens (Human), UniProt O60674); test: In vitro JAK kinase assay (TR-FRET), JAK2; settings: catalytic domain aa 826-1132, GST-fusion; ATP 0.2 μM; peptide 20 nM; 30 minutes at room temperature
Procedure: as §1

JAK1 = JAK1 (Homo sapiens (Human), UniProt P23458); test: In vitro JAK kinase assay (TR-FRET), JAK1; settings: catalytic domain aa 850-1154, GST-fusion; ATP 3 μM; peptide 60 nM; 30 minutes at room temperature
Procedure: as §1

Chain of JAK2 (O60674 826-1132): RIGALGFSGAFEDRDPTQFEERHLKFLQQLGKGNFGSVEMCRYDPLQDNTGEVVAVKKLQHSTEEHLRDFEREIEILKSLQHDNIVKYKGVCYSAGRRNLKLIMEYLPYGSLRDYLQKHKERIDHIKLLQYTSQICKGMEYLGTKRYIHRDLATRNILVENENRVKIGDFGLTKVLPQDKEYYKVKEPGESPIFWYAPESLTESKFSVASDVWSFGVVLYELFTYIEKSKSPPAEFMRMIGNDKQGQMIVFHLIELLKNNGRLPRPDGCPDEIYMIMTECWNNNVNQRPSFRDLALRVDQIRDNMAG
Chain of JAK3 (P52333 795-1124): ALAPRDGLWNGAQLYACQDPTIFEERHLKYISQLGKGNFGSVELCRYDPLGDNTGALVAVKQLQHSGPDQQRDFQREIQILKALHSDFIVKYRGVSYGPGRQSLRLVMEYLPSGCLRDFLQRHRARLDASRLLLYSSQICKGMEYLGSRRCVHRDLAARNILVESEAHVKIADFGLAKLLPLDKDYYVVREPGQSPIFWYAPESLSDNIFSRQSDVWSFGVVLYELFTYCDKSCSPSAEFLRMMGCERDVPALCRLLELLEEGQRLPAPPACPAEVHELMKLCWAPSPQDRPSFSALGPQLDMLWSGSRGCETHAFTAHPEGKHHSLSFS
Chain of JAK1 (P23458 850-1154): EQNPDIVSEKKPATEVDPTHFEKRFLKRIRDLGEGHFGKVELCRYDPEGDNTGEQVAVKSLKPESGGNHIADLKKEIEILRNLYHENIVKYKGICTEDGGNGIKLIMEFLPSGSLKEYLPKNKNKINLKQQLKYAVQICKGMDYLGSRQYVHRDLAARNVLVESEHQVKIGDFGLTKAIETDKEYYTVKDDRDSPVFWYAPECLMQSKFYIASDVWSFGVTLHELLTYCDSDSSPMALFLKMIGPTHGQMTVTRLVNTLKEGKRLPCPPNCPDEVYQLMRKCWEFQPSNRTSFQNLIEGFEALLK

3-((3R)-3-{[5-Fluoro-6-(4-hydroxypiperidin-1-yl)-2-pyrazolo[1,5-a]pyridin-3-ylpyrimidin-4-yl]oxy}piperidin-1-yl)-3-oxopropanenitrile [Example 76]
IC50 (JAK3): 5 nM | IC50 (JAK2): 1 nM | IC50 (JAK1): 9 nM

3-{(3R)-3-[(6-Methoxy-2-pyrazolo[1,5-a]pyridin-3-ylpyrimidin-4-yl)amino]piperidin-1-yl}-3-oxopropanenitrile [Example 95]
IC50 (JAK3): 7 nM | IC50 (JAK2): 3 nM | IC50 (JAK1): 3 nM

N#CC[C@H]1CC[C@H](Nc2nc(-c3cnn4ccccc34)nc(N3CCC(O)CC3)c2F)CC1 [Example 1, (Trans-4-{[5-fluoro-6-(4-hydroxypiperidin-1-yl)-2-pyrazolo[1,5-a]pyridin-3-ylpyrimidin-4-yl]amino}cyclohexyl)acetonitrile]
IC50 (JAK3): 3 nM | IC50 (JAK2): 0.5 nM | IC50 (JAK1): 12 nM

N#CC[C@H]1CC[C@H](Nc2nc(-c3cnn4ccccc34)nc(N3CCC(N)CC3)c2F)CC1 [Example 2, (Trans-4-{[6-(4-aminopiperidin-1-yl)-5-fluoro-2-pyrazolo[1,5-a]pyridin-3-ylpyrimidin-4-yl]amino}cyclohexyl)acetonitrile]
IC50 (JAK3): 4 nM | IC50 (JAK2): 1 nM | IC50 (JAK1): 82 nM

N#CC[C@H]1CC[C@H](Nc2nc(-c3cnn4ccccc34)nc(N3CCNCC3)c2F)CC1 [Example 3, {Trans-4-[(5-fluoro-6-piperazin-1-yl-2-pyrazolo[1,5-a]pyridin-3-ylpyrimidin-4-yl)amino]cyclohexyl}acetonitrile]
IC50 (JAK3): 4 nM | IC50 (JAK2): 0.8 nM | IC50 (JAK1): 150 nM

CN(C)C1CCN(c2nc(-c3cnn4ccccc34)nc(N[C@H]3CC[C@H](CC#N)CC3)c2F)CC1 [Example 4, [Trans-4-({6-[4-(dimethylamino)piperidin-1-yl]-5-fluoro-2-pyrazolo[1,5-a]pyridin-3-ylpyrimidin-4-yl}amino)cyclohexyl]acetonitrile]
IC50 (JAK3): 4 nM | IC50 (JAK2): 1 nM | IC50 (JAK1): 220 nM

N#CC[C@H]1CC[C@H](Nc2nc(-c3cnn4ccccc34)nc(OCCO)c2F)CC1 [Example 5, (Trans-4-{[5-fluoro-6-(2-hydroxyethoxy)-2-pyrazolo[1,5-a]pyridin-3-ylpyrimidin-4-yl]amino}cyclohexyl)acetonitrile]
IC50 (JAK3): 2 nM | IC50 (JAK2): 0.5 nM | IC50 (JAK1): 9 nM

N#CC[C@H]1CC[C@H](Nc2nc(-c3cnn4ccccc34)nc(OC[C@@H](O)CO)c2F)CC1 [Example 6, {Trans-4-[(6-{[(2S)-2,3-dihydroxypropyl]oxy}-5-fluoro-2-pyrazolo[1,5-a]pyridin-3-ylpyrimidin-4-yl)amino]cyclohexyl}acetonitrile]
IC50 (JAK3): 3 nM | IC50 (JAK2): 0.7 nM | IC50 (JAK1): 15 nM

N#CC[C@H]1CC[C@H](Nc2nc(-c3cnn4ccccc34)nc(OC[C@H](O)CO)c2F)CC1 [Example 7, {Trans-4-[(6-{[(2R)-2,3-dihydroxypropyl]oxy}-5-fluoro-2-pyrazolo[1,5-a]pyridin-3-ylpyrimidin-4-yl)amino]cyclohexyl}acetonitrile]
IC50 (JAK3): 2 nM | IC50 (JAK2): 0.5 nM | IC50 (JAK1): 10 nM

N#CC[C@H]1CC[C@H](Nc2nc(-c3cnn4ccccc34)nc(NCCO)c2F)CC1 [Example 8, [Trans-4-({5-fluoro-6-[(2-hydroxyethyl)amino]-2-pyrazolo[1,5-a]pyridin-3-ylpyrimidin-4-yl}amino)cyclohexyl]acetonitrile]
IC50 (JAK3): 10 nM | IC50 (JAK1): 16 nM

CN(C)CCOc1nc(-c2cnn3ccccc23)nc(N[C@H]2CC[C@H](CC#N)CC2)c1F [Example 9, [trans-4-({6-[2-(dimethylamino)ethoxy]-5-fluoro-2-pyrazolo[1,5-a]pyridin-3-ylpyrimidin-4-yl}amino)cyclohexyl]acetonitrile]
IC50 (JAK3): 3 nM | IC50 (JAK2): 0.7 nM | IC50 (JAK1): 85 nM

C[C@H](Nc1nc(-c2cnn3ccccc23)nc(N2CCC(N)CC2)c1F)c1ccc(F)cn1 [Example 11, 6-(4-Aminopiperidin-1-yl)-5-fluoro-N-[(1S)-1-(5-fluoropyridin-2-yl)ethyl]-2-pyrazolo[1,5-a]pyridin-3-ylpyrimidin-4-amine]
IC50 (JAK3): 3 nM | IC50 (JAK2): 1 nM | IC50 (JAK1): 40 nM

C[C@H](Nc1nc(-c2cnn3ccccc23)nc(OCCO)c1F)c1ncc(F)cn1 [Example 12, 2-[(5-Fluoro-6-{[(1S)-1-(5-fluoropyrimidin-2-yl)ethyl]amino}-2-pyrazolo[1,5-a]pyridin-3-ylpyrimidin-4-yl)oxy]ethanol]
IC50 (JAK3): 4 nM | IC50 (JAK2): 0.5 nM | IC50 (JAK1): 4 nM

COc1ccc(-c2nc(-c3cnn4ccccc34)nc(N[C@@H]3CCCN(C(=O)CO)C3)c2F)cn1 [Example 35, 2-((3R)-3-{[5-Fluoro-6-(6-methoxypyridin-3-yl)-2-pyrazolo[1,5-a]pyridin-3-ylpyrimidin-4-yl]amino}piperidin-1-yl)-2-oxoethanol]
IC50 (JAK1): 7 nM

NC(=O)c1nc(-c2cnn3ccccc23)nc(N[C@@H]2CCCN(C(=O)CO)C2)c1F [Example 48, 5-Fluoro-6-{[(3R)-1-glycoloylpiperidin-3-yl]amino}-2-pyrazolo[1,5-a]pyridin-3-ylpyrimidine-4-carboxamide]
IC50 (JAK3): 5 nM | IC50 (JAK1): 13 nM

N#Cc1cnc(N2CCC[C@@H](Nc3nc(-c4cnn5ccccc45)nc(OCCO)c3F)C2)cn1 [Example 54, 5-((3R)-3-{[5-fluoro-6-(2-hydroxyethoxy)-2-pyrazolo[1,5-a]pyridin-3-ylpyrimidin-4-yl]amino}piperidin-1-yl)pyrazine-2-carbonitrile]
IC50 (JAK1): 7 nM

N#CCC(=O)N1CCC[C@@H](Oc2nc(-c3cnn4ccccc34)nc(OCCO)c2F)C1 [Example 66, 3-((3R)-3-{[5-Fluoro-6-(2-hydroxyethoxy)-2-pyrazolo[1,5-a]pyridin-3-ylpyrimidin-4-yl]oxy}piperidin-1-yl)-3-oxopropanenitrile]
IC50 (JAK3): 4 nM | IC50 (JAK1): 10 nM

O=C(O)c1ccc(-c2nc(-c3cnn4ccccc34)nc(N[C@@H]3CCCN(C(=O)CO)C3)c2F)cn1 [Example 79, 5-(5-Fluoro-6-{[(3R)-1-glycoloylpiperidin-3-yl]amino}-2-pyrazolo[1,5-a]pyridin-3-ylpyrimidin-4-yl)pyridine-2-carboxylic acid]
IC50 (JAK3): 6 nM | IC50 (JAK1): 2 nM

CCOCCOc1nc(-c2cnn3ccccc23)nc(N[C@@H]2CCCN(C(=O)CO)C2)c1F [Example 83, 2-((3R)-3-{[6-(2-Ethoxyethoxy)-5-fluoro-2-pyrazolo[1,5-a]pyridin-3-ylpyrimidin-4-yl]amino}piperidin-1-yl)-2-oxoethanol]
IC50 (JAK3): 4 nM | IC50 (JAK1): 32 nM

O=C(CO)N1CCC[C@@H](Nc2nc(-c3cnn4ccccc34)nc(-c3ccc(CO)nc3)c2F)C1 [Example 84, 2-[(3R)-3-({5-Fluoro-6-[6-(hydroxymethyl)pyridin-3-yl]-2-pyrazolo[1,5-a]pyridin-3-ylpyrimidin-4-yl}amino)piperidin-1-yl]-2-oxoethanol]
IC50 (JAK3): 5 nM | IC50 (JAK1): 2 nM

COc1cc(-c2cc(N[C@@H]3CCCN(C(=O)CO)C3)nc(-c3cnn4ccccc34)n2)ccn1 [Example 98, 2-((3R)-3-{[6-(2-Methoxypyridin-4-yl)-2-pyrazolo[1,5-a]pyridin-3-ylpyrimidin-4-yl]amino}piperidin-1-yl)-2-oxoethanol]
IC50 (JAK3): 5 nM | IC50 (JAK1): 3 nM
